Experimental data as given in the supplement of paper PMC11451515.

Test system: P12-Ichikawa
Test: cell viability relative to DMSO control; higher = less cytotoxic
Conditions: 48 h
Procedure, shortened: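 Viability values are per-plate percentages of DMSO wells, with background from cell-free wells. Library compounds in DMSO were pin-dosed, in an 11-point threefold series from 47 μM to 0.79 nM, onto NOMO1 or SEM (500 cells/well) or P12-Ichikawa (1000 cells/well) leukemia cells in 1536-well plates (5 μl). Those cells had been adapted for at least four passages in each medium, and CellTiter-Glo One luminescence was read after 48 h at 37°C.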

[1] = HPLM + 10% dialyzed FBS, 0.000781 µM
[2] = HPLM + 10% dialyzed FBS, 0.00234 µM
[3] = HPLM + 10% dialyzed FBS, 0.00702 µM
[4] = HPLM + 10% dialyzed FBS, 0.0211 µM
[5] = HPLM + 10% dialyzed FBS, 0.0632 µM
[6] = HPLM + 10% dialyzed FBS, 0.19 µM
[7] = HPLM + 10% dialyzed FBS, 0.569 µM
[8] = HPLM + 10% dialyzed FBS, 1.71 µM
[9] = HPLM + 10% dialyzed FBS, 5.12 µM
[10] = HPLM + 10% dialyzed FBS, 15.4 µM
[11] = HPLM + 10% dialyzed FBS, 46.1 µM
[12] = RPMI 5 mM glucose + 10% FBS, 0.000781 µM
[13] = RPMI 5 mM glucose + 10% FBS, 0.00234 µM
[14] = RPMI 5 mM glucose + 10% FBS, 0.00702 µM
[15] = RPMI 5 mM glucose + 10% FBS, 0.0211 µM
[16] = RPMI 5 mM glucose + 10% FBS, 0.0632 µM
[17] = RPMI 5 mM glucose + 10% FBS, 0.19 µM
[18] = RPMI 5 mM glucose + 10% FBS, 0.569 µM
[19] = RPMI 5 mM glucose + 10% FBS, 1.71 µM
[20] = RPMI 5 mM glucose + 10% FBS, 5.12 µM
[21] = RPMI 5 mM glucose + 10% FBS, 15.4 µM
[22] = RPMI 5 mM glucose + 10% FBS, 46.1 µM
[23] = RPMI 5 mM glucose + 10% dialyzed FBS, 0.000781 µM
[24] = RPMI 5 mM glucose + 10% dialyzed FBS, 0.00234 µM
[25] = RPMI 5 mM glucose + 10% dialyzed FBS, 0.00702 µM
[26] = RPMI 5 mM glucose + 10% dialyzed FBS, 0.0211 µM
[27] = RPMI 5 mM glucose + 10% dialyzed FBS, 0.0632 µM
[28] = RPMI 5 mM glucose + 10% dialyzed FBS, 0.19 µM
[29] = RPMI 5 mM glucose + 10% dialyzed FBS, 0.569 µM
[30] = RPMI 5 mM glucose + 10% dialyzed FBS, 1.71 µM
[31] = RPMI 5 mM glucose + 10% dialyzed FBS, 5.12 µM
[32] = RPMI 5 mM glucose + 10% dialyzed FBS, 15.4 µM
[33] = RPMI 5 mM glucose + 10% dialyzed FBS, 46.1 µM

Row | SMILES | cell viability [1] | cell viability [2] | cell viability [3] | cell viability [4] | cell viability [5] | cell viability [6] | cell viability [7] | cell viability [8] | cell viability [9] | cell viability [10] | cell viability [11] | cell viability [12] | cell viability [13] | cell viability [14] | cell viability [15] | cell viability [16] | cell viability [17] | cell viability [18] | cell viability [19] | cell viability [20] | cell viability [21] | cell viability [22] | cell viability [23] | cell viability [24] | cell viability [25] | cell viability [26] | cell viability [27] | cell viability [28] | cell viability [29] | cell viability [30] | cell viability [31] | cell viability [32] | cell viability [33]
1 | Cn1c(=O)c2c(ncn2C)n(C)c1=O.O=C(O)CC(O)(CC(=O)O)C(=O)O | 108% | 106% | 112% | 111% | 111% | 113% | 105% | 105% | 96.8% | 101% | 93.1% | 116% | 119% | 126% | 126% | 121% | 117% | 115% | 116% | 120% | 110% | 107% | 106% | 114% | 110% | 111% | 110% | 109% | 105% | 114% | 113% | 106% | 96.3%
2 | C#Cc1cccc(Nc2ncnc3cc(OCCOC)c(OCCOC)cc23)c1 | 98.2% | 101% | 97.2% | 89.3% | 99.5% | 100% | 101% | 91.3% | 88.5% | 84.3% | 62% | 96.6% | 92.8% | 92.1% | 95.5% | 95.6% | 92% | 88.6% | 88.4% | 78.9% | 83.6% | 52.5% | 96.5% | 93.2% | 95.5% | 91.8% | 96.4% | 93.3% | 86.8% | 80.2% | 83.3% | 78.7% | 56.6%
3 | CCCc1nc(C(C)(C)O)c(C(=O)O)n1Cc1ccc(-c2ccccc2-c2nn[nH]n2)cc1 | 111% | 115% | 112% | 117% | 115% | 125% | 120% | 119% | 122% | 125% | 128% | 109% | 114% | 102% | 110% | 116% | 130% | 124% | 123% | 126% | 138% | 109% | 103% | 70.5% | 107% | 107% | 117% | 118% | 116% | 117% | 118% | 128% | 135%
4 | CC1CCC(C(=O)N(c2cc(C#CC(C)(C)C)sc2C(=O)O)C2CCC(O)CC2)CC1 (stereo not given) | 102% | 91.2% | 98.4% | 95.9% | 95.1% | 95.7% | 93.1% | 88.2% | 83.2% | 59.5% | 49% | 91.2% | 96.3% | 92.4% | 92.5% | 95.6% | 87% | 96.7% | 75.9% | 71.9% | 49.2% | 45.5% | 85.8% | 92.4% | 77.3% | 95% | 86.3% | 83.8% | 88.5% | 77.4% | 69.2% | 54.3% | 38.4%
5 | c1cncc(CN2CCC(n3ncc4c(N5CCOCC5)nc(-c5ccc6[nH]ccc6c5)nc43)CC2)c1 | 96.5% | 99.9% | 98.8% | 97.5% | 105% | 92.2% | 91.8% | 88.5% | 83.9% | 64.8% | 46.1% | 77.9% | 89.7% | 95.4% | 87.9% | 91.6% | 84.9% | 76.1% | 75.7% | 63.5% | 32.6% | 9.35% | 86.5% | 92.9% | 89.5% | 91.7% | 91.5% | 81.7% | 78.6% | 74.6% | 69.9% | 31.7% | 5.49%
6 | CC[C@H](CC[C@@H](C)[C@H]1CC[C@H]2[C@@H]3C\C=C/4C[C@@H](O)CC[C@]4(C)[C@H]3CC[C@]12C)C(C)C | 117% | 111% | 123% | 119% | 112% | 111% | 111% | 110% | 99.4% | 103% | 75.9% | 112% | 119% | 120% | 121% | 120% | 118% | 111% | 107% | 106% | 108% | 92.2% | 110% | 118% | 110% | 107% | 108% | 110% | 109% | 103% | 103% | 105% | 93.1%
7 | O=C([O-])C(O)Cc1ccc(O)c(O)c1 (stereo not given) | 109% | 107% | 99.1% | 110% | 111% | 106% | 104% | 93.7% | 95.7% | 90.2% | 90.1% | 101% | 96.6% | 107% | 99.6% | 99.4% | 98.3% | 92.6% | 90.2% | 99.9% | 81.8% | 83.3% | 95% | 99.2% | 99.9% | 95.5% | 92.3% | 96.8% | 93.2% | 87.9% | 89% | 74.6% | 83.5%
8 | [NH2][Pt]1([NH2])[O]CC(=O)[O]1 | 93.6% | 98.4% | 101% | 95.7% | 105% | 102% | 102% | 101% | 105% | 103% | 105% | 98.5% | 88.3% | 96.9% | 99.5% | 104% | 99.2% | 102% | 88.5% | 92.4% | 95.2% | 102% | 86.2% | 93% | 96.4% | 89.4% | 92.1% | 89.9% | 97.8% | 89.6% | 91.1% | 92.4% | 93.8%
9 | Cc1ccccc1C(C(=O)NC1CCCCC1)N(C(=O)Cn1ccnc1C)c1cccc(F)c1 (stereo not given) | 117% | 114% | 115% | 105% | 105% | 104% | 109% | 104% | 104% | 102% | 102% | 100% | 113% | 105% | 106% | 105% | 101% | 103% | 102% | 93.1% | 102% | 97.1% | 96.2% | 103% | 104% | 104% | 102% | 100% | 98.7% | 97.9% | 95.2% | 93.1% | 97.3%
10 | COc1c(C)cnc(Cn2cnc3c(Cl)nc(N)nc32)c1C | 109% | 114% | 106% | 125% | 118% | 104% | 85.1% | 67.9% | 55.1% | 50.2% | 50.5% | 116% | 123% | 125% | 125% | 124% | 94.1% | 61.6% | 50.5% | 48% | 40.9% | 38.1% | 110% | 121% | 119% | 116% | 115% | 99.8% | 58.3% | 47.8% | 45.1% | 40.9% | 37.9%
11 | CC(=O)Nc1ccc(OC[C@](C)(O)C(=O)Nc2ccc([N+](=O)[O-])c(C(F)(F)F)c2)cc1 | 74.6% | 87% | 84.5% | 87.8% | 85.5% | 89.1% | 88.4% | 88.6% | 90.8% | 91.6% | 86.5% | 63.5% | 76.8% | 71.1% | 87% | 85.5% | 77% | 80.6% | 83.8% | 85.1% | 86.3% | 81.2% | 67.3% | 76.4% | 77.3% | 78.2% | 92.5% | 76.4% | 80% | 83.4% | 80.3% | 85.8% | 80.7%
12 | Nc1ccccc1NC(=O)c1ccc(CNC(=O)OCc2cccnc2)cc1 | 111% | 118% | 110% | 113% | 105% | 107% | 98.4% | 73.4% | 20% | 5.58% | 4.41% | 106% | 112% | 108% | 122% | 108% | 102% | 113% | 71.6% | 27.8% | 4.9% | 3.42% | 109% | 111% | 108% | 113% | 114% | 113% | 99.6% | 69.1% | 21.4% | 5.4% | 3.96%
13 | CCC(C)SSc1ncc[nH]1 (stereo not given) | 91.9% | 99.9% | 97.1% | 105% | 98.2% | 103% | 94.9% | 111% | 101% | 69.5% | 10.6% | 92.8% | 102% | 91.1% | 90% | 96.1% | 95% | 93.8% | 98.1% | 99.7% | 62.1% | 6.08% | 92% | 91.4% | 93.5% | 90.4% | 90.1% | 95.8% | 89.9% | 97.6% | 92% | 34.8% | 5.7%
14 | Cl.Cl.Cl.O[C@@H](COc1cccc2ncccc12)CN1CCN([C@@H]2c3ccccc3[C@@H]3[C@H](c4ccccc42)C3(F)F)CC1 | 94.8% | 94.5% | 88.4% | 89.7% | 90.5% | 92.9% | 84% | 83.8% | 81.8% | 84.5% | 79.3% | 89.1% | 79.1% | 77.9% | 84% | 88.5% | 87% | 71% | 81.6% | 78.4% | 79.8% | 84.6% | 91.8% | 84.3% | 86.3% | 86.7% | 81.6% | 84.6% | 84.4% | 77.8% | 78.6% | 78.4% | 76.3%
15 | CC1(C)O[C@@H]2C[C@H]3[C@@H]4CCC5=CC(=O)C=C[C@]5(C)[C@@]4(F)[C@@H](O)C[C@]3(C)[C@]2(C(=O)CO)O1 | 101% | 105% | 104% | 100% | 86.2% | 76.7% | 55.6% | 63.2% | 39.4% | 18.5% | 8.39% | 111% | 115% | 108% | 115% | 76.5% | 70.2% | 55.3% | 55.9% | 40% | 17.9% | 7.85% | 99.5% | 108% | 100% | 93.2% | 77.6% | 57.9% | 47.4% | 52.6% | 34% | 30.1% | 9.61%
